Assay results: ChEMBL document CHEMBL4251601 (Eur J Med Chem, 2018)

What was measured:
U-87 MG [1] = test: Antitumor activity against luciferase-fused human U87MG cells orthotopically xenografted in nude mouse assessed as tumor growth inhibition at 6.25 mg/kg, po qd for 4 weeks by bioluminescence imaging relative to control; assay type: functional, U-87MG ATCC; details: 672 h, read-out: TGI
[2] = molecular target: Casein kinase I isoform gamma-1 (Homo sapiens) (UniProt Q9HCP0); test: Inhibition of recombinant full length human GST-tagged CK1gamma1 expressed in baculovirus expression system at 0.1 uM by Z'-Lyte assay relative to control
[3] = molecular target: Mitogen-activated protein kinase 14 (Homo sapiens) (UniProt Q16539); test: Inhibition of recombinant human full length GST-tagged p38alpha expressed in Escherichia coli at 1 uM by Z'-Lyte assay relative to control
[4] = molecular target: CDK8/Cyclin C (Homo sapiens) (UniProt P49336+P24863); test: Inhibition of recombinant full length human His-tagged CDK8/Cyclin-C expressed in baculovirus expression system at 1 uM by LanthaScreen assay relative to control
Mus musculus [5] = test: Toxicity in nude mouse orthotopically xenografted with luciferase-fused human U87MG cells assessed as body weight loss at 50 mg/kg, po qd for 5 weeks and measured on day 28 relative to control; assay type: organism-based; details: in vivo, 840 h
[6] = system: Epidermal growth factor receptor (Homo sapiens), P00533 [L858R,T790M]; test: Inhibition of recombinant human GST-tagged EGFR T790M/L858R double mutant expressed in baculovirus expression system at 1 uM by TR-FRET assay relative to control
[7] = molecular target: High affinity nerve growth factor receptor (Homo sapiens) (UniProt P04629); test: Inhibition of recombinant human His-tagged TRKA cytoplasmic domain expressed in baculovirus expression system at 1 uM by Z'-Lyte assay relative to control
[8] = molecular target: Cytoplasmic tyrosine-protein kinase BMX (Homo sapiens) (UniProt P51813); test: Inhibition of recombinant full length human His-tagged BMX expressed in baculovirus expression system at 0.1 uM by TR-FRET assay relative to control
[9] = Unbound Cmax in CD-1 mouse plasma at 10 mg/kg, po administered as single dose by LC-MS/MS analysis; assay type: ADME, organism-based; details: in vivo
[10] = molecular target: Protein kinase C beta type (Homo sapiens) (UniProt P05771); test: Inhibition of PKCbeta2 (unknown origin) at 0.1 uM by Z'-Lyte assay relative to control
[11] = molecular target: cAMP-dependent protein kinase catalytic subunit alpha (Homo sapiens) (UniProt P17612); test: Inhibition of recombinant human His-tagged PKA expressed in Escherichia coli at 1 uM by Z'-Lyte assay relative to control
[12] = molecular target: Glycogen synthase kinase-3 beta (Homo sapiens) (UniProt P49841); test: Inhibition of recombinant human full length His-tagged GSK3beta expressed in baculovirus expression system at 1 uM by Z'-Lyte assay relative to control
[13] = molecular target: Serine/threonine-protein kinase MARK1 (Homo sapiens) (UniProt Q9P0L2); test: Inhibition of recombinant human full length GST-tagged MARK1 expressed in baculovirus expression system at 1 uM by Z'-Lyte assay relative to control
Mus musculus [14] = test: Toxicity in nude mouse orthotopically xenografted with luciferase-fused human U87MG cells assessed as body weight loss at 3.125 to 25 mg/kg, po qd for 5 weeks; assay type: organism-based; details: in vivo, 840 h
[15] = AUC (0 to 24 hrs) in Sprague-Dawley rat at 5 mg/kg, po administered as single dose by LC-MS/MS analysis; assay type: ADME, organism-based; set-up: time < 24 hr, dose 5 mg/kg, route oral; details: in vivo
[16] = molecular target: Mitogen-activated protein kinase 8 (Homo sapiens) (UniProt P45983); test: Inhibition of recombinant human full length His-tagged JNK1 expressed in baculovirus expression system at 0.1 uM by Z'-Lyte assay relative to control
[17] = molecular target: Serine/threonine-protein kinase TAO2 (Homo sapiens) (UniProt Q9UL54); test: Inhibition of recombinant human GST-tagged TAOK2 expressed in baculovirus expression system at 0.1 uM by Z'-Lyte assay relative to control
[18] = molecular target: RAF proto-oncogene serine/threonine-protein kinase (Homo sapiens) (UniProt P04049); test: Inhibition of RAF1 (unknown origin) at 0.1 uM by TR-FRET assay relative to control
[19] = molecular target: Serine/threonine-protein kinase MRCK beta (Homo sapiens) (UniProt Q9Y5S2); test: Inhibition of recombinant human His-tagged CDC42 BPB expressed in baculovirus expression system at 1 uM by Z'-Lyte assay relative to control
[20] = molecular target: Dual specificity tyrosine-phosphorylation-regulated kinase 3 (Homo sapiens) (UniProt O43781); test: Inhibition of recombinant full length human GST-tagged DYRK3 expressed in baculovirus expression system at 1 uM by Z'-Lyte assay relative to control
[21] = molecular target: Fibroblast growth factor receptor 1 (Homo sapiens) (UniProt P11362); test: Inhibition of recombinant human His-tagged FGFR1 cytoplasmic domain expressed in baculovirus expression system at 0.1 uM by Z'-Lyte assay relative to control
[22] = Cmax in Sprague-Dawley rat at 5 mg/kg, po administered as single dose by LC-MS/MS analysis; assay type: ADME, organism-based; set-up: dose 5 mg/kg, route oral; details: in vivo
U-87 MG [23] = test: Cell cycle arrest in human U87MG cells after assessed as accumulation at G1-phase after 24 hrs by propidium iodide staining based flow cytometry; assay type: functional, U-87MG ATCC
[24] = AUC (0 to infinity) in CD-1 mouse brain at 10 mg/kg, po administered as single dose by LC-MS/MS analysis; assay type: ADME, organism-based; set-up: dose 10 mg/kg, time infinity, route oral; details: in vivo
[25] = molecular target: Tyrosine-protein kinase BTK (Homo sapiens) (UniProt Q06187); test: Inhibition of recombinant full length human His-tagged BTK expressed in baculovirus expression system at 1 uM by TR-FRET assay relative to control
[26] = molecular target: Tyrosine-protein kinase Tec (Homo sapiens) (UniProt P42680); test: Inhibition of recombinant human full length His-tagged TEC expressed in baculovirus expression system at 0.1 uM by TR-FRET assay relative to control
[27] = molecular target: Mitogen-activated protein kinase kinase kinase 14 (Homo sapiens, UniProt Q99558); test: Inhibition of recombinant human GST-tagged NIK expressed in baculovirus expression system using ser/thr-7 as substrate preincubated for 15 mins followed by ATP addition measured after 60 mins
[28] = molecular target: Proto-oncogene tyrosine-protein kinase Src (Homo sapiens) (UniProt P12931); test: Inhibition of recombinant human full length His-tagged SRC expressed in baculovirus expression system at 1 uM by Z'-Lyte assay relative to control
[29] = molecular target: Misshapen-like kinase 1 (Homo sapiens) (UniProt Q8N4C8); test: Inhibition of recombinant human GST-tagged MINK (1 to 320 residues) expressed in baculovirus expression system at 1 uM by Z'-Lyte assay relative to control
[30] = molecular target: Tyrosine-protein kinase JAK3 (Homo sapiens, UniProt P52333); test: Inhibition of recombinant human GST-tagged JAK3 cytoplasmic domain (781 to 1124 residues) expressed in baculovirus expression system using ULight-JAK-1 peptide as substrate preincubated for 15 mins followed by ATP addition measured after 90 mins
Mus musculus [31] = test: In vivo inhibition of CDK4/6 in nude mouse xenografted with human COLO205 cells assessed as reduction in Ser-780-phosphorylated Rb level in tumor administered via oral gavage after 24 hrs by Western blot analysis; assay type: functional, organism-based

Chain of Mitogen-activated protein kinase 14 (Homo sapiens) (Q16539 whole entry): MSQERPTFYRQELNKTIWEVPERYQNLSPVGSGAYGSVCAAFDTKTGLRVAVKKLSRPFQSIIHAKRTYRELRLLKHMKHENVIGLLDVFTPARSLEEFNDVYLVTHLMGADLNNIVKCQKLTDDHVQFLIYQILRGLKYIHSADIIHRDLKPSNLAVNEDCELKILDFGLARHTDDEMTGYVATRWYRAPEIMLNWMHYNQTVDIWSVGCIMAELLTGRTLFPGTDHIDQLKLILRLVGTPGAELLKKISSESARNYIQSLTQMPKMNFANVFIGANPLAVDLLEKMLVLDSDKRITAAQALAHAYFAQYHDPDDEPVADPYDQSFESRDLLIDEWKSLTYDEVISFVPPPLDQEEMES
Chain of Mitogen-activated protein kinase 8 (Homo sapiens) (P45983 whole entry): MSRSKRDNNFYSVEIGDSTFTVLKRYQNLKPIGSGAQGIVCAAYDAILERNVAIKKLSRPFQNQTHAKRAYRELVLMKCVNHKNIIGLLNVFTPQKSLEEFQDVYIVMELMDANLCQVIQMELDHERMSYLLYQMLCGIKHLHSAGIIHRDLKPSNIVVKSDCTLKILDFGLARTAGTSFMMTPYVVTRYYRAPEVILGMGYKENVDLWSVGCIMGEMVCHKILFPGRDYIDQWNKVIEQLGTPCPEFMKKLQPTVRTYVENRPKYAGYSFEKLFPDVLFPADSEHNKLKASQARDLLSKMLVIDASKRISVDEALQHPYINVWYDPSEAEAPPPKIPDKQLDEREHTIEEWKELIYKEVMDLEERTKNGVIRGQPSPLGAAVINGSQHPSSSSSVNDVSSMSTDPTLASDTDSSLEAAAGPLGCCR
Chain of Serine/threonine-protein kinase TAO2 (Homo sapiens) (Q9UL54 whole entry): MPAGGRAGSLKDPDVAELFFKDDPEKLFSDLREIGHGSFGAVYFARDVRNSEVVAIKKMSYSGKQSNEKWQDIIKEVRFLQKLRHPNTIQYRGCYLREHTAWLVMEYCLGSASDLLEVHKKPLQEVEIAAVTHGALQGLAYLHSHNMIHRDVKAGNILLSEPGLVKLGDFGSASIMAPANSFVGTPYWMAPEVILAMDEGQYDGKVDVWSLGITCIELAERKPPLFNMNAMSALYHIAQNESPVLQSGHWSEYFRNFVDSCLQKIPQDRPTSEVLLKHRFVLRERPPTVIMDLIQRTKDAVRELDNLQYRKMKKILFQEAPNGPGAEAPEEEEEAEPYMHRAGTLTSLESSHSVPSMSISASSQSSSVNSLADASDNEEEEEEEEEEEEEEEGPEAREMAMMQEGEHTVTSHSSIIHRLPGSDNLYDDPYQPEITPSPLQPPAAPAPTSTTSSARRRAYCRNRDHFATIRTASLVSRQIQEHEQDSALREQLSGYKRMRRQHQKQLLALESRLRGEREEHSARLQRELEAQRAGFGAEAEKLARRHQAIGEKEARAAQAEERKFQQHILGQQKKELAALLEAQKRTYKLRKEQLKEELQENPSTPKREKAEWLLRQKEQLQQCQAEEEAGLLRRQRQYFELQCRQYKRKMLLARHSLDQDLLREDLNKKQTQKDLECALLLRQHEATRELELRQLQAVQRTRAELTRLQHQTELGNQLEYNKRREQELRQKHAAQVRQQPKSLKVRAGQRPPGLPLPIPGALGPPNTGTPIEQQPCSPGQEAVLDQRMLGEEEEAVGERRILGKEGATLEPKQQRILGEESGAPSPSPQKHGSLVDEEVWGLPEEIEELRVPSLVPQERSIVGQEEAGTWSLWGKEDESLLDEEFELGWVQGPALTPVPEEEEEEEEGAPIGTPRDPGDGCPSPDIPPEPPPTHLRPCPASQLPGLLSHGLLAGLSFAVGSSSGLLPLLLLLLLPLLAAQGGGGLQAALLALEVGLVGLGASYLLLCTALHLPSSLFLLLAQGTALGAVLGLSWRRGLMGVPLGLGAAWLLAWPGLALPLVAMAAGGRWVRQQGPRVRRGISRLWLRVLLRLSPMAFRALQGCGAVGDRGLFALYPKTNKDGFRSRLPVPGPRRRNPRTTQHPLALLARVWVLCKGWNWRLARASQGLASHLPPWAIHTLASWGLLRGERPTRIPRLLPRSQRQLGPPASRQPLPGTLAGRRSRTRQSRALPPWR
Chain of Mitogen-activated protein kinase kinase kinase 14 (Q99558 whole entry): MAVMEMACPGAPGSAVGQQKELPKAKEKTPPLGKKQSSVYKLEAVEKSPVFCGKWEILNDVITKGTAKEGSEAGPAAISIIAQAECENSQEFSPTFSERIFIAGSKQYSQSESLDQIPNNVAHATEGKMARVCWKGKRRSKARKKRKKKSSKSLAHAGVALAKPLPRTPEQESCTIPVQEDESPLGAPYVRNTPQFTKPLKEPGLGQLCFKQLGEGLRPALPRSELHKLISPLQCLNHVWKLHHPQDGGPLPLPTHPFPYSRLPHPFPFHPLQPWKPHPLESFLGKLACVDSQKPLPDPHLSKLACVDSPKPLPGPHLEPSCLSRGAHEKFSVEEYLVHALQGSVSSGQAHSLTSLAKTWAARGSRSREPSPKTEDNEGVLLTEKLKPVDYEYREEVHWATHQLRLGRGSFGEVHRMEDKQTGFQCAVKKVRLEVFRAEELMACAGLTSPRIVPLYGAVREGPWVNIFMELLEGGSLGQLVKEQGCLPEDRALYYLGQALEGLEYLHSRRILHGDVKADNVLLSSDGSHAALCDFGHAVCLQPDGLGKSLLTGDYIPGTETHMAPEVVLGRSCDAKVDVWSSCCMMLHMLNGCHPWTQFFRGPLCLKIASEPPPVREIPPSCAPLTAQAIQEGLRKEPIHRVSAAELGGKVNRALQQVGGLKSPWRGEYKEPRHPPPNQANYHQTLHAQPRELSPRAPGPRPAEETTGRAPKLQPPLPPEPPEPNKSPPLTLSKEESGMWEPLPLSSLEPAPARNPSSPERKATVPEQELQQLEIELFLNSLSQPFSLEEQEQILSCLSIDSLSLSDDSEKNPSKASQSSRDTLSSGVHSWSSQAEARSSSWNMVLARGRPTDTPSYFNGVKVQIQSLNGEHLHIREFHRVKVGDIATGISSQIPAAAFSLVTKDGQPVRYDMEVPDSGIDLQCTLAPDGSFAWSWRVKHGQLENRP
Chain of Serine/threonine-protein kinase MARK1 (Homo sapiens) (Q9P0L2 whole entry, looked up, the tested form may be a part): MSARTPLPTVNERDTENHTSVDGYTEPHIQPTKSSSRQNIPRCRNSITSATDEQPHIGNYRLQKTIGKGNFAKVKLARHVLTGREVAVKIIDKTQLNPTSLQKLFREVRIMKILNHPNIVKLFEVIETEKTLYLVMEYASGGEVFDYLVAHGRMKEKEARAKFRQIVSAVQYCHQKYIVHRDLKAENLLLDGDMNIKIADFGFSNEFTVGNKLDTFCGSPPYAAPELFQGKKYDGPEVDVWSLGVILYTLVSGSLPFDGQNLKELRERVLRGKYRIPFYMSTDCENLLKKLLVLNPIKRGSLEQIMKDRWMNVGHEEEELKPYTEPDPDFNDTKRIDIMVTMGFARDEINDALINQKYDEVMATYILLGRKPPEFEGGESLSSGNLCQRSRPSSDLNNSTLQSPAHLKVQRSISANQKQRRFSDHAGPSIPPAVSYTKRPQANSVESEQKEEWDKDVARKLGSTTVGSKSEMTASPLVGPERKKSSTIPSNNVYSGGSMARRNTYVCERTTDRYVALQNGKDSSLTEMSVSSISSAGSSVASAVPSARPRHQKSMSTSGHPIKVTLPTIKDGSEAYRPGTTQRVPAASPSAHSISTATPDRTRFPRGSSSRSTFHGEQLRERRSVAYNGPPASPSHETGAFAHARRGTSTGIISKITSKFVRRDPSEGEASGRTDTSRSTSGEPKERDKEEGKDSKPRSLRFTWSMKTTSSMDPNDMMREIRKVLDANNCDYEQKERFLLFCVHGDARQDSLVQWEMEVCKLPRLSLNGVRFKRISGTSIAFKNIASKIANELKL
Chain of Dual specificity tyrosine-phosphorylation-regulated kinase 3 (Homo sapiens) (O43781 whole entry, the tested form may be a part): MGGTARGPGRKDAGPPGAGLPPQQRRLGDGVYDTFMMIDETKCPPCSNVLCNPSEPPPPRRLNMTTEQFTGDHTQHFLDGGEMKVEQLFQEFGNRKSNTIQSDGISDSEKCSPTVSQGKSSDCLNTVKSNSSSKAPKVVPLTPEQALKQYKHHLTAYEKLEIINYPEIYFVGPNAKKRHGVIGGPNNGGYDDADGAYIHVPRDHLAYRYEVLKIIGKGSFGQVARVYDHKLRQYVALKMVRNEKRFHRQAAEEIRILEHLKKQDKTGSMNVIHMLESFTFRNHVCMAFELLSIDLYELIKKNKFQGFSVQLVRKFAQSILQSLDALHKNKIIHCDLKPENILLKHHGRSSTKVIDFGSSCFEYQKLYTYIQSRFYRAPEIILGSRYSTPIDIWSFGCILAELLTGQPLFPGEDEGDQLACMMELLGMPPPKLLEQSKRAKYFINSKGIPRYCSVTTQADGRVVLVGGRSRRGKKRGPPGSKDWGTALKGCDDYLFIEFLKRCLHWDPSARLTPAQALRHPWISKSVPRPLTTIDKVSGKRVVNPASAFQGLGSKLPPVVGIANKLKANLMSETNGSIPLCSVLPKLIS
Chain of Proto-oncogene tyrosine-protein kinase Src (Homo sapiens) (P12931 2-536 limits assumed): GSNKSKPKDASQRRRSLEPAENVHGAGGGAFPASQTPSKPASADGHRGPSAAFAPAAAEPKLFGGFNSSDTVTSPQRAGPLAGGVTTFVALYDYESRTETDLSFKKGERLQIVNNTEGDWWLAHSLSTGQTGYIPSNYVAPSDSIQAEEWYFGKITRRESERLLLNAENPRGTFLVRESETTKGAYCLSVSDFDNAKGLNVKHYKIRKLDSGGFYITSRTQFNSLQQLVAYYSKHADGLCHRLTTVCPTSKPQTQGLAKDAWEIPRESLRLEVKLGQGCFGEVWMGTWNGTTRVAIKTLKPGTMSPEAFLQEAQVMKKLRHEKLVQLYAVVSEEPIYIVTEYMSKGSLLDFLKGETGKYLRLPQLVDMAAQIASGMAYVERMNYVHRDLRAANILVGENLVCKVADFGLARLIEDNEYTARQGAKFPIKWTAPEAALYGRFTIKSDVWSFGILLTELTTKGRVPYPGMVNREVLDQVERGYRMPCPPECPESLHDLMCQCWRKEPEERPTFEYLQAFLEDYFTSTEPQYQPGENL

Work on `CC1=Nc2c(F)cc(-c3nc(Nc4ccc(C5CCN(C)CC5)cn4)ncc3F)cc2C12CCCC2` [CROZBACICLIB] yielded an inhibition in vivo at 6.25 mg/kg (U-87 MG [1]) of 79%, an inhibition [2] of 3% and an inhibition [3] of -8%. It also gave an inhibition [4] of 85%, an Activity (Mus musculus [5]) of 4.2% and an inhibition [6] of 79%. The inhibition [7] was 48%, the inhibition [8] was 9% and the fCmax [9] was 5.73 ng/mL. For the same molecule, the inhibition [10] was 3%, the inhibition [11] was 8% and the inhibition [12] was 81%. For the same molecule, the inhibition [13] was 16%, the Activity (Mus musculus [14]) was “Non-Toxic” and the AUC(0-t) at 24 h [15] was 1530 ng·h/mL. The inhibition [16] was 6%, the inhibition [17] was 26% and the inhibition [18] was -10%. For the same molecule, the inhibition [19] was 68%, the inhibition [20] was 96% and the inhibition [21] was -8%. For the same molecule, the Cmax [22] was 134 ng/mL, the Emax (U-87 MG [23]) was 41.1% and the Activity (U-87 MG [23]; U-87MG ATCC) was “Dose-dependent effect”. For the same molecule, the AUC [24] was 37438 ng·h/g, the inhibition [25] was 5% and the inhibition [26] was 11%. For the same molecule, the IC50 [27] was 45 nM, the inhibition [28] was 7% and the inhibition [29] was 90%. For the same molecule, the IC50 [30] was 154 nM and the inhibition (Mus musculus [31]) was “Dose-dependent effect”.
